Test systems include BT-549 breast; HL-60(TB) leukemia; HT29 colon; NCI-H460 lung; OVCAR-5 ovarian; SK-MEL-2 melanoma; SN12C renal; T-47D breast; U251 CNS; UACC-257 melanoma.
Holding throughout (assay): NCI-60 cell line screen, 48 h

Among the data in PubChem BioAssay (NCI) are GI50 and TGI values, retold here.

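Five compound concentrations were applied to cells in 96-well plates for 48 hours; endpoints were derived by simple linear interpolation of the resulting dose-response curve. At the GI50, growth is halved. At the TGI there is no net growth.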

In the case of `S=C(Nc1ccccc1)N1CCn2c1nsc2=Nc1ccccc1`, the GI50 is 76.7 µM with BT-549 breast; above 100 µM in the experiment with HL-60(TB) leukemia; above 100 µM in the experiment on HT29 colon; above 100 µM in the experiment with NCI-H460 lung; above 100 µM in the experiment on OVCAR-5 ovarian; above 100 µM in the experiment on SK-MEL-2 melanoma. The GI50 in the experiment with SN12C renal is above 100 µM; in the experiment with T-47D breast, above 100 µM; in the experiment on U251 CNS, 33 µM; in the experiment with UACC-257 melanoma, above 100 µM. Further, the TGI with BT-549 breast, with HL-60(TB) leukemia, in the experiment with HT29 colon, in the experiment with NCI-H460 lung, with OVCAR-5 ovarian and with SK-MEL-2 melanoma was above 100 µM in each case. Further, the TGI with SN12C renal, with T-47D breast, with U251 CNS and with UACC-257 melanoma was above 100 µM throughout.
In the case of `COc1cc(/C=C\c2cc(OC)c(OC)c(OC)c2)cc(NS(=O)(=O)c2cccc(Cl)c2)c1OC`, the GI50 in the experiment with BT-549 breast was 0.0338 µM; in the experiment on HL-60(TB) leukemia, 0.032 µM; in the experiment with HT29 colon, 0.0441 µM; with NCI-H460 lung, 0.0362 µM; in the experiment with OVCAR-5 ovarian, 0.641 µM; in the experiment on SK-MEL-2 melanoma, 1.38 µM. Also, the GI50 with SN12C renal was 0.223 µM; with T-47D breast, 39.5 µM; with U251 CNS, 0.0482 µM; in the experiment on UACC-257 melanoma, 20.3 µM. For the same molecule, the TGI in the experiment on BT-549 breast is 2.46 µM; with HL-60(TB) leukemia, above 100 µM; in the experiment on HT29 colon, above 100 µM; in the experiment with NCI-H460 lung, above 100 µM; in the experiment on OVCAR-5 ovarian, above 100 µM; in the experiment with SK-MEL-2 melanoma it was above 100 µM. Also, the TGI in the experiment with SN12C renal, in the experiment on T-47D breast, in the experiment on U251 CNS and in the experiment on UACC-257 melanoma was above 100 µM throughout.
In the case of `S=c1[nH]nc(SCc2ccccc2Cl)c2[nH]cnc12`, the TGI in the experiment with BT-549 breast, in the experiment with HL-60(TB) leukemia, in the experiment on HT29 colon, in the experiment with NCI-H460 lung, in the experiment on OVCAR-5 ovarian and in the experiment with SK-MEL-2 melanoma was above 100 µM throughout. Besides, the TGI in the experiment on SN12C renal, in the experiment with T-47D breast, in the experiment on U251 CNS and with UACC-257 melanoma was above 100 µM each time.
For the molecule `Cc1ccc(/C=C2\CN(Cc3cn(CCNc4ccnc5cc(Cl)ccc45)nn3)C/C(=C\c3ccc(C)cc3)C2=O)cc1`, the GI50 in the experiment on BT-549 breast is 1.89 µM; in the experiment with HL-60(TB) leukemia, 2.23 µM; in the experiment with HT29 colon, 1.91 µM; in the experiment with NCI-H460 lung, 1.54 µM; in the experiment on OVCAR-5 ovarian, 1.8 µM; with SK-MEL-2 melanoma, 1.99 µM. Also, the GI50 is 1.93 µM with SN12C renal, 2.5 µM with T-47D breast, 1.57 µM in the experiment with U251 CNS and 1.7 µM with UACC-257 melanoma. The TGI came to 3.35 µM in the experiment on BT-549 breast; 5.26 µM in the experiment with HL-60(TB) leukemia; 3.85 µM in the experiment with HT29 colon; 3.38 µM with NCI-H460 lung; 3.54 µM with OVCAR-5 ovarian; 3.65 µM in the experiment with SK-MEL-2 melanoma. For the same molecule, the TGI was 3.95 µM in the experiment on SN12C renal, 6.53 µM with T-47D breast, 3.01 µM with U251 CNS and 3.38 µM with UACC-257 melanoma.
In the case of `CN1N=Nc2c(C(F)(F)F)nn(-c3ccccc3)c2N(C)C1=O`, the GI50 with BT-549 breast is above 100 µM; in the experiment on HL-60(TB) leukemia, above 32 µM; with HT29 colon, above 100 µM; with NCI-H460 lung, above 100 µM; in the experiment with OVCAR-5 ovarian it was above 100 µM; in the experiment with SK-MEL-2 melanoma, above 100 µM. In addition, the GI50 in the experiment on SN12C renal, with T-47D breast, in the experiment with U251 CNS and in the experiment on UACC-257 melanoma was above 100 µM each time. Besides, the TGI was above 100 µM in the experiment with BT-549 breast; above 52.7 µM in the experiment with HL-60(TB) leukemia; above 100 µM in the experiment on HT29 colon; above 100 µM with NCI-H460 lung; above 100 µM with OVCAR-5 ovarian; above 100 µM in the experiment with SK-MEL-2 melanoma. Also, the TGI in the experiment with SN12C renal, with T-47D breast, in the experiment on U251 CNS and in the experiment on UACC-257 melanoma was above 100 µM in each case.
As for `O=C(O)c1cc2c(c3ccsc13)-c1ccccc1CC2`, the GI50 is 41.1 µM with BT-549 breast; 37.5 µM in the experiment with HL-60(TB) leukemia; 39.4 µM in the experiment with HT29 colon; 33.2 µM in the experiment with NCI-H460 lung; 60.2 µM in the experiment with OVCAR-5 ovarian; 26.5 µM in the experiment on SK-MEL-2 melanoma. The GI50 with SN12C renal is 32.1 µM; in the experiment with T-47D breast, 44.7 µM; with U251 CNS, 36.8 µM; in the experiment with UACC-257 melanoma it was 53.4 µM. The TGI in the experiment with BT-549 breast is above 100 µM; in the experiment with HL-60(TB) leukemia, above 100 µM; with HT29 colon, above 100 µM; with NCI-H460 lung, above 100 µM; in the experiment on OVCAR-5 ovarian, above 100 µM; with SK-MEL-2 melanoma, 87.5 µM. Moreover, the TGI with SN12C renal, in the experiment with T-47D breast, with U251 CNS and in the experiment with UACC-257 melanoma was above 100 µM in each case.
Consider `N#C/C(=C\c1cccnc1)c1nc2ccccc2o1`, for which the GI50 in the experiment with BT-549 breast, in the experiment on HL-60(TB) leukemia, in the experiment with HT29 colon, in the experiment on NCI-H460 lung, with OVCAR-5 ovarian and in the experiment on SK-MEL-2 melanoma was above 100 µM in each case. The GI50 in the experiment on SN12C renal, in the experiment on T-47D breast, in the experiment with U251 CNS and in the experiment with UACC-257 melanoma was above 100 µM throughout. For the same molecule, the TGI in the experiment with BT-549 breast, with HL-60(TB) leukemia, in the experiment on HT29 colon, in the experiment on NCI-H460 lung, in the experiment with OVCAR-5 ovarian and in the experiment with SK-MEL-2 melanoma was above 100 µM throughout. The TGI in the experiment on SN12C renal, in the experiment with T-47D breast, in the experiment with U251 CNS and in the experiment on UACC-257 melanoma was above 100 µM in each case.
For `COc1cccc2ccc3c(c12)C(=O)OC31CCc2c(C)cccc21` (stereo not given), the TGI was above 100 µM in the experiment on BT-549 breast; 32.9 µM with HL-60(TB) leukemia; above 31.6 µM in the experiment on HT29 colon; above 31.6 µM with NCI-H460 lung; above 46.4 µM in the experiment with OVCAR-5 ovarian; above 46.4 µM in the experiment with SK-MEL-2 melanoma. Moreover, the TGI with SN12C renal is above 46.4 µM; in the experiment with T-47D breast, above 100 µM; in the experiment with U251 CNS, above 46.4 µM; in the experiment on UACC-257 melanoma, above 100 µM.
